Data from US8071763B2, “Methods for treatment of nocturia” (Daiichi Sankyo Company, Limited, priority 2002, dated 2011).

Test system: nocturia
Assay: Single BPH patient taking a loxoprofen sodium tablet before sleeping
Assay type: in vivo, human
Details: one patient treated for BPH; 60-mg tablet before sleeping
Protocol: Based on the experience, the inventor conducted a non-randomized trial treatment with loxoprofen, a short-acting nonsteroidal anti-inflammatory drug (NSAID) prodrug usually prescribed at a dosage of 60 mg t.i.d. for the management of pain, in patients bothered by nocturia. […] The invention was achieved on the basis of these findings.

## CC(C(=O)O)c1ccc(CC2CCCC2=O)cc1 (stereo not shown) [loxoprofen, loxoprofen sodium]
  Nocturia, voids/night: decreased from a usual of four voids to one void/night
